Reference: the supplement of paper PMC10307832

Legend:
Experiment in all cases: relative viability (nuclei count vs DMSO), 5 days (fraction); higher = more cells survive
[1] = system: NCI-H441
Outline: (§1)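 Relative viability divides the nuclei count in treated wells by that in vehicle wells. Lung cancer cell lines were seeded in 1536-well plates, dosed by pin tool the next day, and fixed and stained after 5 days in one step with final 0.05% Triton X-100, 1% formaldehyde and 1 ug/ml Hoechst. Dosing was a single drug or a fixed anchor-drug dose plus five library-drug doses (not always all listed) in √10 steps, and values are medians of duplicate plates imaged at 4×.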

[2] = system: NCI-H1792
Outline: as §1

[3] = system: NCI-H1975
Outline: as §1

[4] = system: COR-L 105
Outline: as §1

[5] = system: H3255
Outline: as §1

[6] = system: NCI-H2009
Outline: as §1

[7] = system: NCI-H1355
Outline: as §1

[8] = system: ABC-1
Outline: as §1

[9] = system: NCI-H2228
Outline: as §1

[10] = system: SK-MES-1
Outline: as §1

[11] = system: ChaGo-K-1
Outline: as §1

[12] = system: EPLC-272H
Outline: as §1

[13] = system: NCI-H460
Outline: as §1

[14] = system: HCC-827
Outline: as §1

[15] = system: NCI-H322M
Outline: as §1

[16] = system: EKVX
Outline: as §1

[17] = system: NCI-H1993
Outline: as §1

[18] = system: CAL-12T
Outline: as §1

[19] = system: HCC-366
Outline: as §1

[20] = system: NCI-H2087
Outline: as §1

[21] = system: NCI-H2085
Outline: as §1

SMILES: CCNC(=O)c1noc(-c2cc(C(C)C)c(O)cc2O)c1-c1ccc(CN2CCOCC2)cc1 [Luminespib] + CS(=O)(=O)N1CCN(Cc2cc3nc(-c4cccc5[nH]ncc45)nc(N4CCOCC4)c3s2)CC1 [Pictilisib] (partner 1 µM)
- relative viability ([1]; first compound 0.002 µM): 0.479
- relative viability ([1]; first compound 0.006325 µM): 0.513
- relative viability ([1]; first compound 0.02 µM): 0.425
- relative viability ([1]; first compound 0.06325 µM): 0.104
- relative viability ([1]; first compound 0.2 µM): 0.0836
- relative viability ([2]; first compound 0.002 µM): 0.302
- relative viability ([2]; first compound 0.006325 µM): 0.273
- relative viability ([2]; first compound 0.02 µM): 0.13
- relative viability ([2]; first compound 0.06325 µM): 0.124
- relative viability ([2]; first compound 0.2 µM): 0.0905
- relative viability ([3]; first compound 0.002 µM): 0.26
- relative viability ([3]; first compound 0.006325 µM): 0.257
- relative viability ([3]; first compound 0.02 µM): 0.135
- relative viability ([3]; first compound 0.06325 µM): 0.115
- relative viability ([3]; first compound 0.2 µM): 0.106
- relative viability ([4]; first compound 0.002 µM): 0.386
- relative viability ([4]; first compound 0.006325 µM): 0.488
- relative viability ([4]; first compound 0.02 µM): 0.248
- relative viability ([4]; first compound 0.06325 µM): 0.223
- relative viability ([4]; first compound 0.2 µM): 0.254
- relative viability ([5]; first compound 0.002 µM): 0.497
- relative viability ([5]; first compound 0.006325 µM): 0.474
- relative viability ([5]; first compound 0.02 µM): 0.31
- relative viability ([5]; first compound 0.06325 µM): 0.327
- relative viability ([5]; first compound 0.2 µM): 0.179
- relative viability ([6]; first compound 0.002 µM): 0.855
- relative viability ([6]; first compound 0.006325 µM): 0.819
- relative viability ([6]; first compound 0.02 µM): 0.583
- relative viability ([6]; first compound 0.06325 µM): 0.0684
- relative viability ([6]; first compound 0.2 µM): 0.0548
- relative viability ([7]; first compound 0.002 µM): 0.411
- relative viability ([7]; first compound 0.006325 µM): 0.458
- relative viability ([7]; first compound 0.02 µM): 0.255
- relative viability ([7]; first compound 0.06325 µM): 0.143
- relative viability ([7]; first compound 0.2 µM): 0.152
- relative viability ([8]; first compound 0.002 µM): 0.695
- relative viability ([8]; first compound 0.006325 µM): 0.693
- relative viability ([8]; first compound 0.02 µM): 0.407
- relative viability ([8]; first compound 0.06325 µM): 0.249
- relative viability ([8]; first compound 0.2 µM): 0.228
- relative viability ([9]; first compound 0.002 µM): 0.496
- relative viability ([9]; first compound 0.006325 µM): 0.373
- relative viability ([9]; first compound 0.02 µM): 0.122
- relative viability ([9]; first compound 0.06325 µM): 0.168
- relative viability ([9]; first compound 0.2 µM): 0.108
- relative viability ([10]; first compound 0.002 µM): 0.36
- relative viability ([10]; first compound 0.006325 µM): 0.418
- relative viability ([10]; first compound 0.02 µM): 0.271
- relative viability ([10]; first compound 0.06325 µM): 0.114
- relative viability ([10]; first compound 0.2 µM): 0.106
- relative viability ([11]; first compound 0.002 µM): 0.782
- relative viability ([11]; first compound 0.02 µM): 0.501
- relative viability ([11]; first compound 0.06325 µM): 0.345
- relative viability ([11]; first compound 0.2 µM): 0.362
- relative viability ([12]; first compound 0.006325 µM): 0.267
- relative viability ([12]; first compound 0.02 µM): 0.254
- relative viability ([12]; first compound 0.06325 µM): 0.197
- relative viability ([12]; first compound 0.2 µM): 0.148
- relative viability ([13]; first compound 0.002 µM): 0.35
- relative viability ([13]; first compound 0.006325 µM): 0.243
- relative viability ([13]; first compound 0.02 µM): 0.372
- relative viability ([13]; first compound 0.06325 µM): 0.116
- relative viability ([13]; first compound 0.2 µM): 0.0892
- relative viability ([14]; first compound 0.002 µM): 0.949
- relative viability ([14]; first compound 0.006325 µM): 1.02
- relative viability ([14]; first compound 0.02 µM): 0.802
- relative viability ([14]; first compound 0.06325 µM): 0.555
- relative viability ([14]; first compound 0.2 µM): 0.551
- relative viability ([15]; first compound 0.002 µM): 0.497
- relative viability ([15]; first compound 0.006325 µM): 0.525
- relative viability ([15]; first compound 0.02 µM): 0.447
- relative viability ([15]; first compound 0.06325 µM): 0.485
- relative viability ([15]; first compound 0.2 µM): 0.3
- relative viability ([16]; first compound 0.002 µM): 0.392
- relative viability ([16]; first compound 0.006325 µM): 0.46
- relative viability ([16]; first compound 0.02 µM): 0.229
- relative viability ([16]; first compound 0.06325 µM): 0.226
- relative viability ([16]; first compound 0.2 µM): 0.0934
- relative viability ([17]; first compound 0.002 µM): 0.85
- relative viability ([17]; first compound 0.006325 µM): 0.836
- relative viability ([17]; first compound 0.02 µM): 0.744
- relative viability ([17]; first compound 0.06325 µM): 0.787
- relative viability ([17]; first compound 0.2 µM): 0.643
- relative viability ([18]; first compound 0.002 µM): 0.336
- relative viability ([18]; first compound 0.006325 µM): 0.395
- relative viability ([18]; first compound 0.02 µM): 0.25
- relative viability ([18]; first compound 0.06325 µM): 0.111
- relative viability ([18]; first compound 0.2 µM): 0.143
- relative viability ([19]; first compound 0.002 µM): 0.159
- relative viability ([19]; first compound 0.006325 µM): 0.156
- relative viability ([19]; first compound 0.02 µM): 0.116
- relative viability ([19]; first compound 0.06325 µM): 0.0429
- relative viability ([19]; first compound 0.2 µM): 0.0407
- relative viability ([20]; first compound 0.002 µM): 0.908
- relative viability ([20]; first compound 0.006325 µM): 0.776
- relative viability ([20]; first compound 0.02 µM): 0.663
- relative viability ([20]; first compound 0.06325 µM): 0.2
- relative viability ([20]; first compound 0.2 µM): 0.157
- relative viability ([21]; first compound 0.002 µM): 0.448
- relative viability ([21]; first compound 0.006325 µM): 0.511
- relative viability ([21]; first compound 0.02 µM): 0.354
- relative viability ([21]; first compound 0.06325 µM): 0.51
- relative viability ([21]; first compound 0.2 µM): 0.28
